From article PMC9482650, “Quantitative fragmentomics allow affinity mapping of interactomes” (Nature Communications, 2022)
Where two headings read alike, the source gives them in different places. Ends that are not written are not given here.

Experiments:
[1] = target: SNX27 PDZ (Homo sapiens, UniProt Q96L92); assay: Holdup assay; format: binding
[2] = target: T1, TX1BP3 PDZ (Homo sapiens, UniProt O14907); assay: Holdup assay; format: binding
T1 sequence (O14907 15-112 limits assumed): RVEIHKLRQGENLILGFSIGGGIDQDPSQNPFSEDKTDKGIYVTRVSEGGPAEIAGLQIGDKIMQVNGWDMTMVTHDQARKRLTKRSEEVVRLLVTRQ

[3] = target: SCRIB_1 PDZ (Homo sapiens, UniProt Q14160); assay: Holdup assay; format: binding
[4] = target: DLG1_2 PDZ (Homo sapiens, UniProt Q12959); assay: Holdup assay; format: binding
[5] = target: DLG1_1 PDZ (Homo sapiens, UniProt Q12959); assay: Holdup assay; format: binding
[6] = target: T2, SCRIB2 PDZ (Homo sapiens, UniProt Q14160); assay: Holdup assay; format: binding
T2 sequence (Q14160 862-950 limits assumed): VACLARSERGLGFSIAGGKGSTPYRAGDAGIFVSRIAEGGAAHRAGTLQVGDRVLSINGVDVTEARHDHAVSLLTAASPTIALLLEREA

[7] = target: T3, MAST2 PDZ (Homo sapiens, UniProt Q6P0Q8); assay: biochemical; format: binding
T3 sequence (Q6P0Q8 1104-1192 limits assumed): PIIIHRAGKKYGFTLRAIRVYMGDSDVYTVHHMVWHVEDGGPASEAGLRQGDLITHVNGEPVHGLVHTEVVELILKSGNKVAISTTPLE

[8] = target: T4, SYNJ2BP PDZ (Homo sapiens, UniProt P57105); assay: Holdup assay; format: binding
T4 sequence (P57105 13-100 limits assumed): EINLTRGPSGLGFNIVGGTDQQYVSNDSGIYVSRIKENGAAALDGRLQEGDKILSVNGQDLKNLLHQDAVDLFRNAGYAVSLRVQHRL

[9] = tested on: HEK293T cells; assay: Label-free MS proteome of stable cell lines expressing HPV16 E6 or E6ΔPBM; format: cell-based, human; details: protein level
Procedure: HEK293T and HeLa cells were authenticated and found 100% identity to ATCC cat. CRL-3216 and ATCC cat. CCL-2, respectively. Jurkat and HaCat cell lines were not authenticated (original source: ECACC and Deutsches Krebsforschungszentrum DKFZ, respectively). HeLa cells were grown in DMEM (1 g/L glucose, Gibco) medium completed with 5% FCS and 40 μg/mL gentamicin, diluted every 3rd/4th day 1/10. HaCat cells were grown in DMEM (1 g/L glucose, Gibco) medium completed with 10% FCS and 40 μg/mL gentamicin, diluted every 3rd/4th day 1/4. Jurkat cells were grown in RPMI (Gibco) medium completed with 10% FCS and 40 μg/mL gentamicin, diluted every 3rd/4th day 1/12. All cells were kept at 37 °C and 5% CO2. For proteomics analyses cells were seeded on T-175 flasks. After they reached confluency, adherent cells were washed with PBS once and collected by scraping with ice-cold lysis buffer (Hepes-KOH pH 7.5 50 mM, NaCl 150 mM, Triton X-100 1%, complete EDTA-free protease inhibitor cocktail 1×, EDTA 2 mM, TCEP 5 mM, glycerol 10%). Jurkat cells were collected by 1000 g × centrifugation, washed once with PBS, then collected by 1000 g × 5 min centrifugation again and lysed in ice-cold lysis buffer. Lysates were sonicated 4 × 20 s with 1 s long pulses on ice, then incubated rotating at 4 °C for 30 min. Lysates were centrifuged at 12,000 rpm 4 °C for 20 min and supernatant was kept for further analysis. Concentration determination was carried out by standard Bradford method (Bio-Rad Protein Assay Dye Reagent #5000006) using BSA (MP BIomedicals #160069) as control on a Bio-Rad SmartSpec 3000 spectrophotometer instrument.
The samples were precipitated with TCA 20% overnight at 4 °C and centrifuged at 14,000 rpm for 10 min at 4 °C. The protein pellets were washed twice with 1 mL cold acetone and air dried. The protein extracts were solubilized in urea 8 M, reduced with 5 mM TCEP for 30 min, and alkylated with 10 mM iodoacetamide for 30 min in the dark. Double digestion was performed at 37 °C with 500 ng endoproteinase Lys-C for 4 h, followed by fourfold dilution and an overnight digestion with 500 ng trypsin. Peptide mixtures were then desalted on C18 spin-column and dried on Speed-Vacuum.
Samples were analyzed using an Ultimate 3000 nano-RSLC (Thermo Scientific, San Jose California) coupled in line with a LTQ-Orbitrap ELITE mass spectrometer via a nano-electrospray ionization source (Thermo Scientific, San Jose California). Peptide mixtures were injected in 0.1% TFA on a C18 Acclaim PepMap100 trap-column (75 µm ID × 2 cm, 3 µm, 100 Å, Thermo Fisher Scientific) for 3 min at 5 µL/min with 2% ACN, 0.1% FA in H2O and then separated on a C18 Accucore nano-column (75 µm ID × 50 cm, 2.6 µm, 150 Å, Thermo Fisher Scientific) at 220 nl/min and 38 °C with a 90 min linear gradient from 5% to 30% buffer B (A: 0.1% FA in H2O/B: 99% ACN, 0.1% FA in H2O), regeneration at 5% B. The mass spectrometer was operated in positive ionization mode, in data-dependent mode with survey scans from m/z 350–1500 acquired in the Orbitrap at a resolution of 120,000 at m/z 400. The 20 most intense peaks from survey scans were selected for further fragmentation in the Linear Ion Trap with an isolation window of 2.0 Da and were fragmented by CID with normalized collision energy of 35%. (TOP20CID method) Unassigned and single charged states were excluded from fragmentation. The Ion Target Value for the survey scans (in the Orbitrap) and the MS2 mode (in the Linear Ion Trap) were set to 1E6 and 5E3 respectively and the maximum injection time was set to 100 ms for both scan modes. Dynamic exclusion was set to 20 s after one repeat count with mass width at ±10 ppm.
Proteins were identified by database searching using SequestHT (Thermo Fisher Scientific) with Proteome Discoverer 2.4 software (PD2.4, Thermo Fisher Scientific) on human FASTA database downloaded from SwissProt (reviewed, release 2020_11_27, 20304 entries, https://www.uniprot.org/). […]

[10] = target: Htra2; details: SPR; ref Murwantoko et al 2004; cited from earlier work
Text: (§1) Supplement 41467_2022_33018_MOESM4_ESM.xlsx, sheet "reference DMI interactome" | column: Affinity (mM); pKd, measured in literature

[11] = target: Htra1; details: SPR; ref Murwantoko et al 2004; cited from earlier work
Text: as §1

[12] = PBM motif of the named protein vs TX1BP3 PDZ, read-out: pKd values – domain-motif, TX1BP3 (converted)
[13] = PBM motif of the named protein vs SCRIB_1 PDZ, read-out: pKd values – domain-motif, SCRIB_1 (converted)
[14] = PBM motif of the named protein vs DLG1_2 PDZ, read-out: pKd values – domain-motif, DLG1_2 (converted)
[15] = PBM motif of the named protein vs DLG1_1 PDZ, read-out: pKd values – domain-motif, DLG1_1 (converted)
[16] = PBM motif of the named protein vs SCRIB_2 PDZ, read-out: pKd values – domain-motif, SCRIB_2 (converted)
[17] = holdup affinity of the PBM peptide of the named protein, sheet PBMcomplexome, lower sub-table
[18] = holdup affinity of the PBM peptide of the named protein, sheet PBMcomplexome, lower sub-table, 3.5 appears to be the floor for no detectable binding, read-out: affinity of PBM to TX1BP3 (pKd) (converted)
[19] = holdup affinity of the PBM peptide of the named protein, sheet PBMcomplexome, lower sub-table, 3.5 appears to be the floor for no detectable binding, read-out: affinity of PBM to SCRIB_1 (pKd) (converted)
[20] = holdup affinity of the PBM peptide of the named protein, sheet PBMcomplexome, lower sub-table, 3.5 appears to be the floor for no detectable binding, read-out: affinity of PBM to DLG1_2 (pKd) (converted)

Sequence of SCRIB_1 PDZ (Q14160 728-815 limits assumed): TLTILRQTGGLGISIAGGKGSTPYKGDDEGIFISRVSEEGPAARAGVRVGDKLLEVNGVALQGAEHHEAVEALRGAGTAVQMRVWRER

Molecule	Kd [1] [µM]	Kd [2, 12] [µM]	Kd [3, 13] [µM]	Kd [4, 14] [µM]	Kd [5, 15] [µM]	Kd [6, 16] [µM]	Kd [1, 17] [µM]	also measured
EVVHTPETSV [SLC16A3]	7.08	145	8.32	50.1	135	33.1	–	–
FHPLGADSQV [SLC2A1]	89.1	170	95.5	132	–	–	–	–
DTKNYKQTSV [CRIPT]	4.68	3.98	13.2	8.51	44.7	24.5	–	–
CC(C)C[C@H](NC(=O)[C@H](CC(=O)O)NC(=O)[C@@H]1CCCN1C(=O)[C@@H](NC(=O)CNC(=O)[C@H](CCC(=O)O)NC(=O)[C@H](CO)NC(=O)[C@H](CO)NC(=O)[C@H](CC(N)=O)NC(=O)[C@H](CC(C)C)NC(=O)[C@@H](N)CC(N)=O)C(C)C)C(=O)N[C@@H](CC(C)C)C(=O)N[C@H](C(=O)O)C(C)C [SARS-CoV-E]	–	–	–	–	–	–	–	Kd [7]: 253 µM
QSARYRDTEL [TJP2 (ZO2)]	20.4	17.4	34.7	170	209	126	–	–
DDENIRTSDV [PLEKHA2]	–	–	–	–	–	–	14.5	Kd [2, 18]: 17.8 µM; Kd [3, 19]: 178 µM; Kd [4, 20]: 34.7 µM; Kd ([5]; holdup affinity of the PBM peptide of the named protein, sheet PBMcomplexome, lower sub-table, 3.5 appears to be the floor for no detectable binding, read-out: affinity of PBM to DLG1_1 (pKd) (converted)): 158 µM; Kd ([6]; holdup affinity of the PBM peptide of the named protein, sheet PBMcomplexome, lower sub-table, 3.5 appears to be the floor for no detectable binding, read-out: affinity of PBM to SCRIB_2 (pKd) (converted)): 178 µM
PPRQRSETQV [HPV82E6]	–	–	–	–	–	–	–	Kd [8]: 13.7 µM
LDSQIQETSI [MAP4]	1.86	110	2.75	42.7	229	35.5	–	–
EKPIDSETKM [SLC1A3]	–	–	–	–	–	–	6.61	–
TBCD	–	–	–	–	–	–	–	Difference log2 E6/Ctrl ([9]; E6 cell line vs control): 0.5689; Ratio E6/Ctrl ([9]; E6 cell line vs control): 1.483; Difference log2 dPBM/E6 ([9]; dPBM cell line vs E6 cell line): -3.03; Ratio dPBM/E6 ([9]; dPBM cell line vs E6 cell line): 0.1225; Difference log2 dPBM/Ctrl ([9]; dPBM cell line vs control): -2.461; Ratio dPBM/Ctrl ([9]; dPBM cell line vs control): 0.1817
KKKKGQYYFV [HtrA2-Opt]	–	–	–	–	–	–	–	pKd, measured in literature [10]: 7.7167; pKd, measured in literature [11]: 8.42
TSQESEDTYL [TBC1D10A]	–	–	–	–	–	–	5.37	Kd [3, 19]: 102 µM
QGLAERISVL [PRKD2]	–	–	–	–	–	–	16.6	Kd [2, 18]: 41.7 µM; Kd [3, 19]: 170 µM; Kd [4, 20]: 214 µM
